Biological target: T1, Bcl-2-related protein A1 (Mus musculus, UniProt Q07440)
T1 sequence (Q07440 whole entry): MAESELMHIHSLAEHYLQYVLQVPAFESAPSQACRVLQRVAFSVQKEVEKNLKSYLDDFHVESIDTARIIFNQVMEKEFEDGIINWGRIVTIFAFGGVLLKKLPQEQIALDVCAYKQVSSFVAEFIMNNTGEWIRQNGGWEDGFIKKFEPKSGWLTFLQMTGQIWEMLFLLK
Assay: Bfl-1 inhibitors in counterscreen, dose response, biochemical (AID 504689)

SMILES	IC50 [µM]
O=C1N=c2ccccc2=C1NNC(=S)NCC1CCCO1 (configuration not stated)	> 20
Cc1cccc(NC(=S)NNC2=c3ccccc3=NC2=O)c1	> 20
COc1ccc(CN=Nc2cc(C)nc3ccc(OC)cc23)c(OC)c1	11.4
Cc1cc(C)c2c(c1)=C(NNC(=S)NCC1CCCO1)C(=O)N=2 (configuration not stated)	> 20
O=C1Nc2ccc([N+](=O)[O-])cc2C1=NNC(=S)NCC1CCCO1 (configuration not stated)	> 20
NC(=S)NN=C1C(=O)N(CCCl)c2ccccc21	> 20
COC(=O)c1ccc(CN2C(=O)C(=NNC(N)=S)c3ccccc32)o1	> 20
CCOC(=O)C1C(COC(=O)c2ncc(Cl)c(Cl)c2Cl)=NC(=O)NC1C (configuration not stated)	> 20
COCCNC(=S)NN=C1C(=O)Nc2ccc([N+](=O)[O-])cc21 [1-(2-methoxyethyl)-3-[(5-nitro-2-oxoindol-3-yl)amino]thiourea]	> 20
O=C1Nc2ccccc2/C1=N/NC(=S)Nc1ccc(O)cc1 [1-(4-hydroxyphenyl)-3-[(2-oxidanylideneindol-3-yl)amino]thiourea]	> 20
CCCCNC(=S)N/N=C1\C(=O)Nc2ccccc21 [1-butyl-3-[(2-oxidanylideneindol-3-yl)amino]thiourea]	> 20
CCNC(=S)NNC1=c2cc(C(C)C)ccc2=NC1=O [1-ethyl-3-[(2-oxo-5-propan-2-yl-3-indolyl)amino]thiourea]	> 20
CCN(CC)CCOC(=O)c1ccc(N=CC(C#N)c2nc(-c3ccc4c(c3)OCO4)cs2)cc1 (configuration not stated) [2-(diethylamino)ethyl 4-[[(Z)-2-[4-(1,3-benzodioxol-5-yl)-1,3-thiazol-2-yl]-2-cyano-ethenyl]amino]benzoate]	1.72
CCN(CC)CCOC(=O)c1ccc(N=CC(C#N)c2nc(-c3cc4ccccc4oc3=O)cs2)cc1 (configuration not stated) [2-(diethylamino)ethyl 4-[[(Z)-2-cyano-2-[4-(2-oxochromen-3-yl)-1,3-thiazol-2-yl]ethenyl]amino]benzoate]	0.55
CCN(CC)CCOC(=O)c1ccc(N=CC(C#N)c2nc(-c3ccc(OC)cc3)cs2)cc1 (configuration not stated) [4-[[(Z)-2-cyano-2-[4-(4-methoxyphenyl)-2-thiazolyl]ethenyl]amino]benzoic acid 2-(diethylamino)ethyl ester]	2.99
CC(=O)N1N=C(C2C(=O)N(C)C(=O)N(C)C2=O)CC1c1ccccc1 (configuration not stated) [5-(1-acetyl-5-phenylpyrazolidin-3-ylidene)-1,3-dimethyl-1,3-diazinane-2,4,6-trione]	> 20
N=C(N)C1=CC(=O)/C(=C/C=c2ccc(=C(N)N)cc2)C=C1 [(4E)-4-[2-[4-[bis(azanyl)methylidene]cyclohexa-2,5-dien-1-ylidene]ethylidene]-3-oxidanylidene-cyclohexa-1,5-diene-1-carboximidamide;2-oxidanylethanesulfonic acid]	> 20
C#CCOCCOCCOCCNc1nc(N2CCN(C(=O)CCCCCCCCCCNC(=O)[C@H](CCCCN)n3cc(CCCC(=O)O)nn3)CC2)nc(N2CCN(C(=O)CCCCCCCCCCNC(=O)[C@H](CCCN=C(N)N)n3cc(C[C@@H](C)CC)nn3)CC2)n1 [EK-IR]	13.9
C#CCOCCOCCOCCNc1nc(N2CCN(C(=O)CCCCCCCCCCNC(=O)[C@H]([C@@H](C)CC)n3cc(CCCCN=C(N)N)nn3)CC2)nc(N2CCN(C(=O)CCCCCCCCCCNC(=O)[C@@H]([C@H](C)O)n3cc(C)nn3)CC2)n1 [GT-RI]	> 20
C#CCOCCOCCOCCNc1nc(N2CCN(C(=O)CCCCCCCCCCNC(=O)Cn3cc(CCCCCN)nn3)CC2)nc(N2CCN(C(=O)CCCCCCCCCCNC(=O)[C@H]([C@@H](C)CC)n3cc(CCCCN=C(N)N)nn3)CC2)n1 [KG-RI]	9.73
C#CCOCCOCCOCCNc1nc(N2CCN(C(=O)CCCCCCCCCCNC(=O)Cn3cc(CCCCCN)nn3)CC2)nc(N2CCN(C(=O)CCCCCCCCCCNC(=O)Cn3cc(C[C@@H](C)O)nn3)CC2)n1 [KG-TG]	> 20
C#CCOCCOCCOCCNc1nc(N2CCN(C(=O)CCCCCCCCCCNC(=O)[C@H]([C@@H](C)CC)n3cc(CCCCCN)nn3)CC2)nc(N2CCN(C(=O)CCCCCCCCCCNC(=O)[C@H](CCCCN)n3cc(CCCC(=O)O)nn3)CC2)n1 [KI-EK]	> 20
